According to the NIST ThermoML archive (doi:10.1021/je500093z):
Numbers after ± are expanded uncertainties.

Legend:
[1] = refractive index (Na D-line) (dimensionless); details: 101.33 kPa, Liquid, Standard Abbe refractometry
[2] = for surface tension liquid-gas: Ring tensiometer; for viscosity / speed of sound / mass density: 101.33 kPa, Liquid; for speed of sound: Pulse-echo method; for mass density: Vibrating tube method

| SMILES | refractive index ([1]; 298.15 K) | refractive index ([1]; 303.15 K) | refractive index ([1]; 308.15 K) | refractive index ([1]; 313.15 K) | refractive index ([1]; 318.15 K) | refractive index ([1]; 323.15 K) | refractive index ([1]; 328.15 K) | refractive index ([1]; 333.15 K) | surface tension liquid-gas ([2]; 298.15 K) | viscosity ([2]; 298.15 K) | speed of sound ([2]; 298.15 K) | mass density ([2]; 298.15 K) | surface tension liquid-gas ([2]; 303.15 K) | viscosity ([2]; 303.15 K) | speed of sound ([2]; 303.15 K) | mass density ([2]; 303.15 K) | surface tension liquid-gas ([2]; 308.15 K) | viscosity ([2]; 308.15 K) | speed of sound ([2]; 308.15 K) | mass density ([2]; 308.15 K) | also measured |
| --- | --- | --- | --- | --- | --- | --- | --- | --- | --- | --- | --- | --- | --- | --- | --- | --- | --- | --- | --- | --- | --- |
| CCCCn1cc[n+](C)c1.F[P-](F)(F)(F)(F)F [1-butyl-3-methylimidazolium hexafluorophosphate] | 1.4101 ± 0.001 | 1.4085 ± 0.001 | 1.4081 ± 0.001 | 1.407 ± 0.001 | 1.4068 ± 0.001 | 1.4058 ± 0.001 | 1.4053 ± 0.001 | 1.4042 ± 0.001 | 43 ± 0.9 mN/m | 273.94 ± 26 mPa·s | 1443.6 ± 3.1 m/s | 1367 ± 4 kg/m3 | 42.6 ± 0.9 mN/m | 203.2 ± 16 mPa·s | 1431.6 ± 3.1 m/s | 1363 ± 4 kg/m3 | 42.2 ± 0.9 mN/m | 153.99 ± 9.7 mPa·s | 1419.8 ± 3.1 m/s | 1359 ± 4 kg/m3 | surface tension liquid-gas ([2]; 313.15 K): 41.9 ± 0.8 mN/m; viscosity ([2]; 313.15 K): 118.96 ± 5.9 mPa·s; speed of sound ([2]; 313.15 K): 1408.3 ± 3.1 m/s; mass density ([2]; 313.15 K): 1355 ± 4 kg/m3; surface tension liquid-gas ([2]; 318.15 K): 41.7 ± 0.8 mN/m; viscosity ([2]; 318.15 K): 93.44 ± 3.5 mPa·s; speed of sound ([2]; 318.15 K): 1396.9 ± 3.1 m/s; mass density ([2]; 318.15 K): 1351 ± 4 kg/m3; surface tension liquid-gas ([2]; 323.15 K): 41.2 ± 0.8 mN/m; viscosity ([2]; 323.15 K): 74.6 ± 2 mPa·s; speed of sound ([2]; 323.15 K): 1385.8 ± 3.1 m/s; mass density ([2]; 323.15 K): 1347 ± 4 kg/m3; surface tension liquid-gas ([2]; 328.15 K): 40.8 ± 0.8 mN/m; viscosity ([2]; 328.15 K): 60.43 ± 1.1 mPa·s; speed of sound ([2]; 328.15 K): 1374.7 ± 3.1 m/s; mass density ([2]; 328.15 K): 1343 ± 4 kg/m3; surface tension liquid-gas ([2]; 333.15 K): 40.5 ± 0.8 mN/m; viscosity ([2]; 333.15 K): 49.62 ± 0.98 mPa·s; speed of sound ([2]; 333.15 K): 1363.8 ± 3.1 m/s; mass density ([2]; 333.15 K): 1339 ± 4 kg/m3 |
| CCCCCCCC[n+]1ccn(C)c1.[Cl-] [1-methyl-3-octylimidazolium chloride] | 1.5088 ± 0.001 | 1.5085 ± 0.001 | 1.5061 ± 0.001 | 1.5058 ± 0.001 | 1.5054 ± 0.001 | 1.5048 ± 0.001 | 1.5037 ± 0.001 | 1.5029 ± 0.001 | 32.5 ± 0.7 mN/m | 13267 ± 4000 mPa·s | 1687.2 ± 3.1 m/s | 1010 ± 3 kg/m3 | 32.2 ± 0.7 mN/m | 7770.4 ± 2100 mPa·s | 1667.7 ± 3.1 m/s | 1007 ± 3 kg/m3 | 31.9 ± 0.7 mN/m | 4755.2 ± 1200 mPa·s | 1646.1 ± 3.1 m/s | 1004 ± 3 kg/m3 | surface tension liquid-gas ([2]; 313.15 K): 31.6 ± 0.7 mN/m; viscosity ([2]; 313.15 K): 3006.7 ± 660 mPa·s; speed of sound ([2]; 313.15 K): 1619.6 ± 3.1 m/s; mass density ([2]; 313.15 K): 1001 ± 3 kg/m3; surface tension liquid-gas ([2]; 318.15 K): 31.3 ± 0.7 mN/m; viscosity ([2]; 318.15 K): 1967.6 ± 390 mPa·s; speed of sound ([2]; 318.15 K): 1597.1 ± 3.1 m/s; mass density ([2]; 318.15 K): 998 ± 3 kg/m3; surface tension liquid-gas ([2]; 323.15 K): 31 ± 0.6 mN/m; viscosity ([2]; 323.15 K): 1323.4 ± 230 mPa·s; speed of sound ([2]; 323.15 K): 1577.4 ± 3.1 m/s; mass density ([2]; 323.15 K): 995 ± 3 kg/m3; surface tension liquid-gas ([2]; 328.15 K): 30.7 ± 0.6 mN/m; viscosity ([2]; 328.15 K): 914.13 ± 140 mPa·s; speed of sound ([2]; 328.15 K): 1559.6 ± 3.1 m/s; mass density ([2]; 328.15 K): 992 ± 3 kg/m3; surface tension liquid-gas ([2]; 333.15 K): 30.4 ± 0.6 mN/m; viscosity ([2]; 333.15 K): 646.96 ± 90 mPa·s; speed of sound ([2]; 333.15 K): 1543 ± 3.1 m/s; mass density ([2]; 333.15 K): 989 ± 3 kg/m3 |
| COS(=O)(=O)[O-].Cn1cc[n+](C)c1 [1,3-dimethylimidazolium methylsulfate] | 1.4817 ± 0.001 | 1.4811 ± 0.001 | 1.4804 ± 0.001 | 1.4797 ± 0.001 | 1.4792 ± 0.001 | 1.4785 ± 0.001 | 1.4779 ± 0.001 | 1.4771 ± 0.001 | 57.6 ± 1.1 mN/m | 71.7 ± 1.8 mPa·s | 1811.5 ± 3.1 m/s | 1329 ± 4 kg/m3 | 57.3 ± 1.1 mN/m | 57.6 ± 0.97 mPa·s | 1799.4 ± 3.1 m/s | 1323 ± 4 kg/m3 | 56.8 ± 1.1 mN/m | 46.93 ± 0.92 mPa·s | 1787.3 ± 3.1 m/s | 1319 ± 4 kg/m3 | surface tension liquid-gas ([2]; 313.15 K): 56.4 ± 1.1 mN/m; viscosity ([2]; 313.15 K): 38.81 ± 0.77 mPa·s; speed of sound ([2]; 313.15 K): 1775.4 ± 3.1 m/s; mass density ([2]; 313.15 K): 1316 ± 4 kg/m3; surface tension liquid-gas ([2]; 318.15 K): 56 ± 1.1 mN/m; viscosity ([2]; 318.15 K): 32.52 ± 0.64 mPa·s; speed of sound ([2]; 318.15 K): 1763.6 ± 3.1 m/s; mass density ([2]; 318.15 K): 1312 ± 4 kg/m3; surface tension liquid-gas ([2]; 323.15 K): 55.5 ± 1.1 mN/m; viscosity ([2]; 323.15 K): 27.59 ± 0.55 mPa·s; speed of sound ([2]; 323.15 K): 1751.9 ± 3.1 m/s; mass density ([2]; 323.15 K): 1308 ± 4 kg/m3; surface tension liquid-gas ([2]; 328.15 K): 55.1 ± 1.1 mN/m; viscosity ([2]; 328.15 K): 23.67 ± 0.47 mPa·s; speed of sound ([2]; 328.15 K): 1740.3 ± 3.1 m/s; mass density ([2]; 328.15 K): 1305 ± 4 kg/m3; surface tension liquid-gas ([2]; 333.15 K): 54.8 ± 1.1 mN/m; viscosity ([2]; 333.15 K): 20.5 ± 0.41 mPa·s; speed of sound ([2]; 333.15 K): 1728.8 ± 3.1 m/s; mass density ([2]; 333.15 K): 1302 ± 4 kg/m3 |
| CCCCn1cc[n+](C)c1.O=S(=O)([O-])O [1-butyl-3-methylimidazolium hydrogen sulfate] | 1.5043 ± 0.0013 | 1.5 ± 0.0013 | 1.4965 ± 0.0013 | 1.4914 ± 0.0013 | 1.4857 ± 0.0013 | 1.4813 ± 0.0013 | 1.4762 ± 0.0013 | 1.4721 ± 0.0013 | 43.6 ± 1.2 mN/m | 439.36 ± 53 mPa·s | 1689.8 ± 5.1 m/s | 1224 ± 8 kg/m3 | 43.2 ± 1.2 mN/m | 321.95 ± 33 mPa·s | 1676.7 ± 5.1 m/s | 1220 ± 8 kg/m3 | 42.8 ± 1.2 mN/m | 240.81 ± 21 mPa·s | 1664.3 ± 5.1 m/s | 1217 ± 8 kg/m3 | surface tension liquid-gas ([2]; 313.15 K): 42.4 ± 1.2 mN/m; viscosity ([2]; 313.15 K): 183.54 ± 14 mPa·s; speed of sound ([2]; 313.15 K): 1652.1 ± 5.1 m/s; mass density ([2]; 313.15 K): 1214 ± 8 kg/m3; surface tension liquid-gas ([2]; 318.15 K): 42 ± 1.2 mN/m; viscosity ([2]; 318.15 K): 142.55 ± 8.9 mPa·s; speed of sound ([2]; 318.15 K): 1640.2 ± 5.1 m/s; mass density ([2]; 318.15 K): 1211 ± 8 kg/m3; surface tension liquid-gas ([2]; 323.15 K): 41.7 ± 1.2 mN/m; viscosity ([2]; 323.15 K): 112.37 ± 5.7 mPa·s; speed of sound ([2]; 323.15 K): 1628.5 ± 5.1 m/s; mass density ([2]; 323.15 K): 1208 ± 8 kg/m3; surface tension liquid-gas ([2]; 328.15 K): 41.3 ± 1.2 mN/m; viscosity ([2]; 328.15 K): 89.95 ± 3.7 mPa·s; speed of sound ([2]; 328.15 K): 1615.5 ± 5.1 m/s; mass density ([2]; 328.15 K): 1204 ± 8 kg/m3; surface tension liquid-gas ([2]; 333.15 K): 40.9 ± 1.2 mN/m; viscosity ([2]; 333.15 K): 72.88 ± 2.4 mPa·s; speed of sound ([2]; 333.15 K): 1601.5 ± 5.1 m/s; mass density ([2]; 333.15 K): 1201 ± 8 kg/m3 |
